Results published in patent publication US12193994B2, “Combination of a cell therapy and a gamma secretase inhibitor” (Juno Therapeutics, Inc., priority 2017, dated 2025).

Columns and labels:
MM1S cells = assay: Serial restimulation of anti-BCMA CAR+ T cells with irradiated target cells: expansion and cytokines; assay type: cell-based, human; details: 0.001 μM and 1.0 μM
Excerpt: The ability of CAR T cells to expand ex vivo following repeated rounds of antigen stimulation can correlate with in vivo function and/or capacity of the cells to persist in in vivo (e.g., following administration and initial activation in response to encounter with antigen) (Zhao et al. (2015) Cancer Cell, 28:415-28). To assess the effect of the exemplary gamma secretase inhibitor on CAR-T cell activity after serial restimulation, anti-BCMA CAR+ T cells were generated as described above in Example 2, and irradiated BCMA-expressing target cells (MM1S cells) were added at an effector-to-target (E:T) ratio of 1:2 in the presence of LY3039478 at two different concentrations, either 0.001 μM (a concentration around the IC50) or a higher concentration of 1.0 μM (approximately 3 times Cmax), or with vehicle only control. The assay was performed on a composition of anti-BCMA CAR+ T cells generated from T cells derived from a healthy donor or from a donor with multiple myeloma. Every 3-4 days, CAR-expressing T cells were harvested, counted and re-plated at the initial seeding density with fresh media containing new irradiated target cells at the same E:T ratio in the presence or absence of the same concentration of LY3039478. A total of 3-5 rounds of stimulation were carried out during a 10-14 day culture period. Effects of the inhibitor on T cell function were assessed by monitoring the cell number (FIGS. 4A and 4B) or cytokine production in harvested supernatant (FIG. 5A and FIG. 5B) at each round of stimulation.
The production of cytokines by anti-BCMA CAR-T cells upon restimulation with antigen-expressing cells in the presence or absence of LY3039478 was assessed after the first round of re-plating at day 4. Culture supernatants were harvested 24 hours after re-plating, and IFN-gamma, IL-2 and TNF-alpha were measured from the culture supernatants.

OPM2 target cells = assay: Similar study: concentration dependence of anti-BCMA CAR-T cytolytic function; assay type: cell-based; details: Homo sapiens, OPM-2; OPM2, one exemplary donor; read-out: increasing anti-BCMA CAR-T killing of BCMA-expressing target cells, IC50
Experimental: Anti-BCMA CAR-T cells generated as described in this Example above were cultured at 37° C. with either OPM2 or RPMI-8226 target cells at an effector to target (E:T) ratio of 0.3:1. The target cells were labeled with NucLight Red (NLR), to permit tracking of target cells by microscopy. Cultures were incubated in the absence of LY3039478 or in the presence of LY3039478 at concentrations of 0.1 nM, 1 nM, 10 nM, 100 nM, 1000 nM, 10000 nM or 100000 nM (the range covering the estimated human pharmacokinetic range is shown by the boxes in FIGS. 3A-3D). As a control, target cells were incubated with LY3039478 but without culture with CAR-T cells. Cytolytic activity was assessed by measuring the loss of viable target cells after about 150 hours, as determined by red fluorescent signal (using the IncuCyte® Live Cell Analysis System, Essen Bioscience). The area under the curve for killing observed during the culture period (˜150 hours) was determined. Percent lysis (% killing) was determined by normalizing the AUC for killing to cultures incubated without the inhibitor.
A similar study was carried out to further assess the effects of different concentrations of LY3039478, including concentrations within the estimated Cmax/Cmin for the inhibitor, on the cytolytic function of anti-BCMA CAR-T cells against OPM2 target cells.

[1] = system: RPMI-8226 human multiple myeloma xenograft; assay type: in vivo
Experimental: Anti-tumor effects following administration of anti-BCMA CAR T cells and a gamma secretase inhibitor compound, LY3039478, each, individually, and in combination, were assessed in a RPMI-8226 human multiple myeloma xenograft mouse model. The anti-BCMA CAR-expressing T cells were generated as described in Example 2.
NOD.Cg.PrkdescidIL2rgtm1 Wjl/SzJ (NSG) mice were injected subcutaneously (s.c.) with 1E+07 RPMI-8226 cells modified to express GFP and firefly luciferase (RPMI-8226 ffluc), and tumor volume was allowed to increase over the course of 25 days, the 25th day being designated “day 0” in this study. Animals were divided into 8 groups, and each group received one of the following treatments: (1) vehicle only, (2) LY3039478 (3 mg/kg) only, (3) Mock T cells (not expressing the CAR) (3.00E+06 T cells per mouse) and vehicle, (4) Mock T cells (3.00E+06 T cells per mouse) and LY3039478 (3 mg/kg), (5) anti-BCMA CAR+ T cells (1.00E+06 CAR+ cells per mouse) and vehicle, (6) anti-BCMA CAR+ T cells (1.00E+06 CAR+ cells per mouse) and LY3039478 (3 mg/kg), (7) anti-BCMA CAR+ T cells (3.00E+06 CAR+ cells per mouse) and vehicle, or (8) anti-BCMA CAR+ T cells (3.00E+06 CAR+ cells per mouse) and LY3039478 (3 mg/kg). In each group, LY3039478 or vehicle was delivered by mouth (p.o.) at day-1 and at day zero (0) and every other day (e.o.d.) up to day 21. Where applicable, T cells were administered by a single intravenous (i.v.) injection on day 0.
CAR+ T cells in blood and in tumor were assessed on days 7, […], 21, and 28 by flow cytometry using antibodies specific for cell surface markers and a reagent specific to the anti-BCMA CAR. Animal survival was monitored throughout the study.
The presence of CAR+ T cells in the blood was monitored over the course of the study (from blood drawn on days 7, 14, 21 and 28 post CAR-T cell administration). White blood cells from blood samples were stained with various reagents to detect various markers on the surface of immune cells, including T cells, and expression of the CAR (including a reagent specific for the CAR and a reagent specific for a transduction marker encoded by the CAR vector).
Tumor digests were also analyzed to determine the number of CD4+ and CD8+ CAR+ T cells in tumors following the various treatment conditions. […] Serum BCMA was also assessed according to treatment condition.

anti-BCMA CAR+ T cells = assay: Anti-BCMA CAR+ T cells incubated with BCMA-containing beads +/- LY3039478 (Luminex); assay type: cell-based, human; details: different concentrations
Experimental: Various parameters indicative of T cell function were assessed following incubation of anti-BCMA CAR+ T cells with BCMA-containing beads in the presence of different concentrations of the gamma secretase inhibitor, LY3039478, or vehicle (DMSO). Supernatant was harvested after 24 hours and production of TNF-alpha, IFN-gamma and IL-2 were measured using a Luminex Multiplex Assay.

[2] = 24 hours after re-plating at day 4, both donors
[3] = no CAR+ T cells, LY3039478 3 mg/kg p.o. alone or with Mock T cells 3.00E+06

Question: How did the “levels of IFN-gamma” value (MM1S cells; [2]) turn out when `C[C@H](NC(=O)CCC(F)(F)F)C(=O)N[C@@H]1C(=O)N(CCO)c2ncccc2-c2ccccc21` [LY3039478, 4,4,4-trifluoro-N-[(1S)-2-[[(7S)-5-(2-hydroxyethyl)-6-oxo-7H-pyrido[2,3-d][3]benzazepin-7-yl]amino]-1-methyl-2-oxo-ethyl]butanamide] was run?
Answer: Increased levels

Question: What about the “levels of IL-2” value (MM1S cells; [2]) of the same molecule?
Answer: Increased levels

Question: What about the “levels of TNF-alpha” value (MM1S cells; [2]) of the same molecule?
Answer: Increased levels

Question: What about the “expansion of anti-BCMA CAR T cells” value (MM1S cells; E:T 1:2, 10-14 days, healthy and myeloma donor) of the same molecule?
Answer: increased expansion

Question: What about the “detrimental effects on CAR-T cell function” value (MM1S cells; serial restimulation) of the same molecule?
Answer: did not exhibit any detrimental effects

Question: And the IC50 (OPM2 target cells)?
Answer: 0.1 to 0.25 nM

Question: What about the “Day 65 Survival %” value [1, 3] of the same molecule?
Answer: 0%

Question: And the “Median Survival” value [1, 3]?
Answer: 22.5 days

Question: What about the Number of deaths [1, 3] of the same molecule?
Answer: 10

Question: What about the “surface BCMA MFI on RPMI-8226 tumor cells (tumor digests, flow cytometry)” value ([1]; presence of LY3039478, days 7 and 15) of the same molecule?
Answer: increased

Question: And the “peripheral blood count of CD4+ or CD8+ T cells that did not express the anti-BCMA CAR” value ([1]; treated with or without LY3039478)?
Answer: No changes

Question: And the “CAR+ T cell count” value (anti-BCMA CAR+ T cells)?
Answer: did not impact

Question: And the viability (anti-BCMA CAR+ T cells)?
Answer: did not impact

Question: And the “cytokine production (TNF-alpha, IFN-gamma and IL-2)” value (anti-BCMA CAR+ T cells; 24 hours)?
Answer: did not impact
